Among the test systems are SF-295 CNS; BT-549 breast; U251 CNS; HCC-2998 colon; MDA-N; CAKI-1 renal; MDA-MB-231 breast; LOX IMVI melanoma; SNB-75 CNS; SK-OV-3 ovarian; DMS 114 small cell lung; M19-MEL melanoma; HOP-18 NSCLC; DLD-1 colon; DMS 273 small cell lung; SNB-78 CNS; KM20L2 colon.
Common to all, as to assay: NCI tumour cell line growth inhibition, 48 h

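Each compound was tested at five concentrations against cells in 96-well plates for 48 hours. At the TGI there is no net growth.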

With `CCOC(=O)C(NNS(=O)(=O)c1ccc(C)cc1)S(=O)(=O)C(F)(F)C(F)(F)C(F)(F)C(F)(F)F` (centres undefined), the TGI in the assay with SF-295 CNS, in the assay on BT-549 breast, in the assay on U251 CNS, with HCC-2998 colon, with MDA-N and in the assay on CAKI-1 renal was above 100 µM throughout. For the same compound, the TGI with MDA-MB-231 breast, with LOX IMVI melanoma, in the assay with SNB-75 CNS and with SK-OV-3 ovarian was above 100 µM each time.

For `COc1cccc2c1C(=O)C(=O)c1c-2oc(=O)c2cc(C)cc(OC)c12`, the TGI in the assay with SF-295 CNS is above 75 µM; in the assay on BT-549 breast, 26 µM; with U251 CNS, 23.2 µM; in the assay on HCC-2998 colon, 37.6 µM; with MDA-N, 38.7 µM; in the assay with CAKI-1 renal it was above 75 µM. The TGI in the assay on MDA-MB-231 breast was 70.6 µM; in the assay with LOX IMVI melanoma it was 26.5 µM; in the assay on SNB-75 CNS, 55.7 µM; with SK-OV-3 ovarian, above 75 µM.

Turning to `C=C(Cl)C(C)(Cl)CCC(Cl)C(C)(C)Cl` (centres undefined), the TGI in the assay with SF-295 CNS, in the assay with BT-549 breast, in the assay with U251 CNS, in the assay with HCC-2998 colon, with MDA-N and in the assay with CAKI-1 renal was above 100 µM in each case. Further, the TGI in the assay on MDA-MB-231 breast was 83.3 µM; in the assay with LOX IMVI melanoma it was 61.2 µM; with SNB-75 CNS, above 100 µM; in the assay with SK-OV-3 ovarian it was above 100 µM.

Regarding `O=C(O)c1ccc(Nc2ccnc3cc(Cl)ccc23)cc1O`, the TGI in the assay on SF-295 CNS, in the assay on BT-549 breast, with U251 CNS, in the assay on HCC-2998 colon, in the assay with MDA-N and with CAKI-1 renal was above 100 µM throughout. Further, the TGI with MDA-MB-231 breast, in the assay with LOX IMVI melanoma, in the assay on SNB-75 CNS and with SK-OV-3 ovarian was above 100 µM each time.

With `COC(=O)[C@@H]1O[C@]12C(CO[Si](C)(C)C(C)(C)C)OC(n1ccc(=O)[nH]c1=O)C2O[Si](C)(C)C(C)(C)C` (some centres undefined), the TGI in the assay with SF-295 CNS is 57.7 µM; with BT-549 breast, 47.7 µM; in the assay on U251 CNS, above 100 µM; in the assay with HCC-2998 colon it was above 100 µM; with MDA-N, above 100 µM; with CAKI-1 renal, 72 µM. The TGI in the assay with MDA-MB-231 breast is above 100 µM; in the assay with LOX IMVI melanoma, 42.5 µM; with SNB-75 CNS, above 100 µM; in the assay with SK-OV-3 ovarian it was above 100 µM.

Consider `CCCCCCCC/C=C\CCCCCCCCNc1ccn(C2OC(COP(=O)(O)OC3CC(n4cc(F)c(=O)[nH]c4=O)OC3CO)C(O)C2O)c(=O)n1` (centres undefined), for which the TGI in the assay with SF-295 CNS, with BT-549 breast, in the assay on U251 CNS, in the assay with HCC-2998 colon, in the assay with MDA-N and in the assay on CAKI-1 renal was above 100 µM throughout. Besides, the TGI with MDA-MB-231 breast was above 100 µM; in the assay with LOX IMVI melanoma, above 37.2 µM; with SNB-75 CNS it was above 100 µM; in the assay on SK-OV-3 ovarian it was above 100 µM.

In the case of `NCC(=O)C(O)C(O)C(O)CO` (centres undefined), the TGI in the assay with SF-295 CNS, in the assay with BT-549 breast, with U251 CNS, in the assay on HCC-2998 colon, with MDA-N and in the assay with CAKI-1 renal was above 100 µM each time. The TGI with MDA-MB-231 breast, with LOX IMVI melanoma, with SNB-75 CNS and with SK-OV-3 ovarian was above 100 µM in each case.

Consider `CC(N)Cc1cccc(C(F)(F)F)c1` (centres undefined), for which the TGI with SF-295 CNS, in the assay with DMS 114 small cell lung, in the assay with M19-MEL melanoma, in the assay with HOP-18 NSCLC, in the assay on U251 CNS and in the assay with DLD-1 colon was above 100 µM in each case. In addition, the TGI in the assay with HCC-2998 colon, in the assay with DMS 273 small cell lung, in the assay with CAKI-1 renal, in the assay on LOX IMVI melanoma, in the assay with SNB-78 CNS and in the assay on SNB-75 CNS was above 100 µM in each case. For the same compound, the TGI in the assay with SK-OV-3 ovarian and with KM20L2 colon was above 100 µM in each case.

Turning to `CC(C)(C)CN1[C@@H]2CCCC[C@H]2N(CC(C)(C)C)P1(=O)Cc1ccccc1`, the TGI with SF-295 CNS worked out at 23.1 µM; in the assay with BT-549 breast it was 31.2 µM; in the assay with U251 CNS, 26.5 µM; with HCC-2998 colon, 21.2 µM; with MDA-N it was 28.4 µM; in the assay with CAKI-1 renal, 27.3 µM. Also, the TGI in the assay on MDA-MB-231 breast was 24.9 µM; with LOX IMVI melanoma, 29.6 µM; with SNB-75 CNS, 24.1 µM; in the assay with SK-OV-3 ovarian, 29.2 µM.

Consider `CCCCCCCC1c2cc3[nH]c(cc4nc(cc5[nH]c(cc(n2)[C@@]1(C)CC(=O)N(C)C)c(C)c5CCC(=O)O)C(CCC(=O)O)=C4C)cc3C` (some centres undefined), for which the TGI is 37.5 µM in the assay with SF-295 CNS; 28.6 µM in the assay on BT-549 breast; 32.9 µM with U251 CNS; 37.8 µM in the assay on HCC-2998 colon; above 100 µM in the assay with MDA-N; above 100 µM in the assay on CAKI-1 renal. Moreover, the TGI in the assay with MDA-MB-231 breast is 33.7 µM; in the assay with LOX IMVI melanoma, 33.3 µM; in the assay on SNB-75 CNS, 40 µM; with SK-OV-3 ovarian, above 100 µM.

Take `C[C@]12CC[C@@H]3c4ccc(OC(=O)c5ccccc5)cc4CC[C@H]3[C@@H]1CCC2OC(=O)c1cccc2c(=O)c3ccccc3[nH]c12` (some centres undefined): the TGI in the assay on SF-295 CNS worked out at 37.5 µM; with BT-549 breast it was 38 µM; with U251 CNS, 29.9 µM; in the assay on HCC-2998 colon, 30 µM; with MDA-N, 27.8 µM; with CAKI-1 renal, 58.9 µM. Moreover, the TGI in the assay on MDA-MB-231 breast was 40.8 µM; in the assay with LOX IMVI melanoma it was 31 µM; in the assay on SNB-75 CNS, 55.8 µM; in the assay on SK-OV-3 ovarian, 74.2 µM.

`N#Cc1c(C#N)c(-c2cccc([N+](=O)[O-])c2)n(-c2ccccc2)c1N`: the TGI with SF-295 CNS, in the assay on BT-549 breast, in the assay on U251 CNS, in the assay with HCC-2998 colon, in the assay on MDA-N and with CAKI-1 renal was above 100 µM throughout. The TGI was above 100 µM in the assay on MDA-MB-231 breast, above 100 µM with LOX IMVI melanoma, 61 µM in the assay on SNB-75 CNS and above 100 µM in the assay with SK-OV-3 ovarian.
